Test results: patent US20230147744A1, “METHODS TO ENRICH ENTEROENDOCRINE CELLS AND THEIR SUBTYPES IN THE CONTIGUOUS, INTESTINAL MONOLAYER SYSTEMS” (The University of North Carolina at Chapel Hill, priority 2020, published 2023)
Where “and” joins values, the source holds several entries; their conditions need not be identical. Equal values may be shown once. Values belong to the compound of their own block, whether it stands above or below them.

Tests used:
GLP-1+ L cells = experiment: Density of GLP-1+ L-cells on differentiated colonic monolayers; type: cell-based, human; settings: for formation of L-cells: addition during differentiation, 4 days
Excerpt: Enteroendocrine (EEC) cells within the intestinal epithelium consist of at least 15 different subtypes. Enterochromaffin (EC) cells are the most abundant subtype, comprising about 40% of EEC cells in the gastrointestinal tract. Besides EC cells, at least one other important EE subtype is L-cells, which are major regulators of the gut-brain interactions and are pivotal in regulating appetite and glucose homeostasis^4. L-cells co-secrete peptide hormones GLP-1 and PYY in response to the ingestion of food^5-8. GLP-1 stimulates the secretion of insulin from pancreatic β-cells^9,10, decreases gastric emptying and increases satiation^11. PYY slows GI motility and reduces food intake^12. Due to their important function as regulators of postprandial response to nutrients, L-cells are of specific interest in the field of obesity and diabetes^3-17. L-cells were also identified in the VIP-ALI cultured monolayers at a density of 12±2 mm^2 and constituted about 14% of the EE population (FIG. 7). However, the density of L-cells is still too low to perform a reliable functional assay of GLP-1/PYY secretion. Thus, further experiments were conducted to develop optimal protocols to enrich L-cells (see Example 7).
Experiments were conducted to systemically optimize four conditions to enrich L-cells: (1) ±ALI, (2) ±VIP, (3) R-spondin/Noggin ratio at 1:4, 1:1 and 4:1 in differentiation medium, (4) ±BIMU8 (a potent 5-HT4 agonist). The colonic stem cells were plated on a porous membrane coated with Matrigel and cultured for 3 days in growth factor-enriched medium until the cell monolayer reach confluence. Then the cells were differentiated for 4 days and the density of GLP-1^+ L cells was used as the readout (FIG. 8A). […] The R-spondin/Noggin ratio in differentiation medium also affected the density of L-cells, and the best result was obtained by using a ratio of 4/1. By using the conditions disclosed herein (ALI, VIP, R-spondin/Noggin=4/1, BIMU8), 137±12 cells/mm^2 GLP-1^+ L-cells were obtained, which is about 46 times higher than 3±2 cells/mm^2 in the previously used conditions (submerged, —VIP, R-spondin/Noggin=1/1, -BIMU8), and 11 times higher than 12±2 mm^2 in VIP-ALI culture (+ALI, +VIP, R-spondin/Noggin=1/1, -BIMU8).

[1] = system: EC cells in monolayers derived from human transverse colon stem cells; experiment: 5HT secretion assay (ELISA of basal medium) on stem-cell-derived colonic monolayers after apical stimulation; type: cell-based; settings: for 5HT induction: pungent food ingredient screen, apical stimulation 4 h, EC-enriched monolayers, donor 2
[2] = system: colonic monolayers derived from human transverse colon; experiment: Monolayer barrier integrity (Papp, TEER); type: cell-based; settings: VIP-assisted ALI culture, n=6
Excerpt: Besides the elevated 5HT secretion, an additional advantage of VIP-assisted ALI culture is the improved barrier integrity (FIG. 4D). […] The cell respiration combined with the low diffusion rate of oxygen in the growth medium can lead to a reduced oxygen availability to the cells.^22 ALI culture can increase the oxygen availability, but the cells were stressed due to the complete dry up at the apical surface. […] Conversely, VIP-assisted ALI culture maintained a thin layer of fluid (about 0.4 mm thick) at the apical side, thus increasing the oxygen availability and at the same time as eliminating the stress from dry up. The high integrity of monolayers is needed to effectively segregates the apical and basal reservoirs to prevent the leakage of the stimulants and 5HT.

[3] = system: EEC (ChgA+) and EC (5HT+) cells; experiment: Number of EEC (ChgA+) and EC (5HT+) cells on monolayers by immunofluorescence staining; type: cell-based
Procedure: (§1) The fraction of EC among EEC remained in the range of 45-51% in these differentiation conditions, which is consistent with their fraction in the body that EC make up over 70% of the EEC population in the proximal colon and falls to around 40% in the rectum.^2 To test if the enriched EC cells increases 5HT secretion, the monolayers were stimulated with vehicle (DMSO) or forskolin (10 μM). […] The induction is 6.1× over the vehicle control (0.62±0.07 ng/mL). Therefore, the enriched EC cells improves the 5HT secretion assay by increasing the signal/background ratio.
It is likely that stem cells make lineage-fate decisions at the proliferation stage toward enterocytes and goblets cells, which are the major cell types in the intestinal epithelium. We can add signaling molecules, such as CHIR99021, to prevent the early lineage-fate decision and force the stem cells to stay at their ground state. CHIR99021 activates Wnt signaling by inhibition of GSK3. When the stem cells were cultured in EM under 3 μM CHIR99021 prior to conventional submerged culture in DM, the presence of EC cells was increased by almost 200% (FIGS. 11A and 11B). […] Besides CHIR99021, other Wnt activators (WAY316606, ABC99, IQ1, arylpyrimidine), and recombinant proteins of Wnt-3A and R-spondin (Wnt signaling enhancer) may be able to increase the formation of EC cells. We have not studied the synergistic effect of Wnt activator (in EM) and VIP-assisted ALI (in DM), but we expect the combination of both strategies will further increase the formation of EEC and EC cells.

[4] = system: EC cells in monolayers derived from human transverse colon stem cells; experiment: 5HT secretion assay (ELISA of basal medium) on stem-cell-derived colonic monolayers after apical stimulation; type: cell-based
Excerpt: Culture conditions for intestinal epithelial monolayer platform have been optimized in a previous publication, and the medium composition for yielding the maximal expression levels of EEC cell lineage marker gene ChgA was investigated.^11 Nicotinamide and p38 MAP kinase inhibitor (SB202190), two compounds commonly used in intestinal epithelial cell culture, are removed from medium due to their suppression of differentiation towards secretory cells. Inclusion of A 8301, a TGF-β receptor signaling inhibitor, is required for proper differentiation and cell morphology of monolayer cultures. Herein, the same medium composition was adopted and the in vitro monolayers were generated from stem cells derived from human transverse colon using the traditional submerged culture. The EEC (ChgA+) and EC (5HT+) cells presented at a density of 22±5 and 10±3 mm^−2, respectively (FIG. 2A, 2B). Accordingly, the total number of EC cells in a 96-well insert (surface area=11 mm^2) is 110±33. To test if the number of EC cells is enough for functional assays, the monolayers were stimulated with vehicle (dimethyl sulfoxide [DMSO]) or forskolin (10 μM) at the apical side for 4 h, and the released 5HT from the basal side was collected and quantified (FIG. 2C). Forskolin is a potent stimulus of 5HT release though activation of the cAMP-dependent pathway.^18 In three independent experiments, stimulated 5HT secretion by forskolin was 0.97±0.34, 0.88±0.28, and 0.60±0.23 ng/mL, respectively, corresponding to 3.6×, 2.1× and 2.4× induction over the vehicle controls (0.27±0.10, 0.42±0.18 ng/mL, and 0.25±0.07 respectively). Significant inter-experiment variability was observed due to high standard deviation of the 5HT measurements: the results in the first experiment were considered to be statistically non-significant (p>0.05, t-test), statistically significant (p<0.05) in the second one, but statistically non-significant (p>0.05) again in the third experiment. The high standard deviation came from a number of sources: error in 5HT measurement through enzyme-linked immunosorbent assay (ELISA), well-to-well variation, 5HT residue (mainly from the fetal bovine serum in the medium) left in the well, and 5HT that spontaneously leached out from the apoptotic ECs during assay. To improve the reliability of 5HT secretion assay and its signal/background ratio, the number of EEC and EC cells in monolayers need to be enriched.
as §1
As the generation and storage of 5HT inside granules of EC cells depends on the cell maturation, the level of 5HT secretion is affected by the differentiation length of the monolayers. To find out the optimal duration for differentiation, the monolayers were subjected to VIP-assisted ALI culture for 3-7 days. As expected, the forskolin stimulated 5HT secretion increased with differentiation length (due to cell maturation), so did the non-stimulated basal secretion (FIG. 4E). The barrier integrity was remained (Papp<4×10^−7 cm/s) for all samples, except for those under 7 days in differentiation in which the cells may start to undergo apoptosis (FIG. 4F). 5 days in differentiation was considered to be optimal since it generated monolayers with high 5HT induction (5.7×) and monolayer barrier integrity. This duration is coincident with life span of differentiated epithelium in human colon. Unless otherwise specified, 5 days were used for differentiation in this invention. […]

[5] = ALI, VIP, R-spondin/Noggin=4/1, BIMU8

Compound: CC(C)n1c(=O)n(C(=O)NC2CC3CCC(C2)N3C)c2ccccc21 (stereo not drawn) [BIMU8]
- L-cell density, times higher than VIP-ALI culture (+ALI, +VIP, R-spondin/Noggin=1/1, -BIMU8) (GLP-1+ L cells; [5]): 11 times
- L-cell density, times higher than previously used conditions (submerged, -VIP, R-spondin/Noggin=1/1, -BIMU8) (GLP-1+ L cells; [5]): about 46 times
- GLP-1+ L-cells density (GLP-1+ L cells; ALI, VIP, R-spondin/Noggin=4/1, BIMU8, 4 days differentiation): 137±12 cells/mm^2
- formation of L-cells (GLP-1+ L cells): increased the formation of L-cells

- EC50 ([1]; Homo sapiens, dose-dependent stimulation of 5HT secretion, read-out: median effective dose (E50) for 5HT secretion): 51 µM
Compound: COc1cc(/C=C/C(=O)CC(=O)/C=C/c2ccc(O)c(OC)c2)ccc1O [curcumin]
- 5HT induction [1]: 7.3 ×

Compound: vasoactive intestinal peptide [VIP]
- transepithelial electrical resistance (TEER) [2]: 842±166 ohms cm^2
- number of EC compared with submerged culture ([3]; VIP added to submerged culture): 180%
- number of EEC compared with submerged culture ([3]; VIP added to submerged culture): 177%
- density of EC ([3]; combination of ALI and VIP): 43±9 mm^−2
- density of EEC ([3]; combination of ALI and VIP): 83±11 mm^−2
- number of EC compared with traditional submerged culture without VIP ([3]; combination of ALI and VIP): 430%
- number of EEC compared with traditional submerged culture without VIP ([3]; combination of ALI and VIP): 377%
- L-cells as share of the EE population (GLP-1+ L cells; VIP-ALI cultured monolayers): about 14%
- formation of L-cells (GLP-1+ L cells): increased the formation of L-cells

Compound: Cc1c[nH]c(-c2cnc(NCCNc3ccc(C#N)cn3)nc2-c2ccc(Cl)cc2Cl)n1 [CHIR99021]
- increase of presence of EC cells ([3]; 3 μM CHIR99021 in EM prior to conventional submerged culture in DM): ~200%

Compound: C=C[C@@]1(C)CC(=O)[C@]2(O)[C@@]3(C)[C@@H](O)CCC(C)(C)[C@@H]3[C@H](O)[C@H](OC(C)=O)[C@@]2(C)O1 [forskolin]
- 5HT induction (forskolin/DMSO) ([4]; donor 1, 2, and 5): > 5.0
- 5HT induction (forskolin/DMSO) ([4]; donor 3 and 4): < 3.6
- stimulated 5HT secretion ([4]; forskolin 10 μM apical 4 h, monolayers from traditional submerged culture, independent experiments): 0.97 ± 0.34 ng/mL and 0.88 ± 0.28 ng/mL and 0.60 ± 0.23 ng/mL and 0.97 ± 0.44 ng/mL
- induction of 5HT secretion over the vehicle control ([4]; forskolin 10 μM apical 4 h, submerged culture, three independent experiments): 3.6 × and 2.1 × and 2.4 ×
- induction of 5HT secretion over the vehicle control ([4]; forskolin 10 μM, VIP-assisted ALI culture): 6.1 ×
- 5HT secretion higher than that from submerged culture ([4]; forskolin 10 μM, VIP-assisted ALI vs submerged culture): 390%
- 5HT secretion under forskolin stimulation ([4]; forskolin 10 μM, monolayer from VIP-assisted ALI culture): 3.79 ± 0.57 ng/mL
- 5HT induction ([4]; forskolin, VIP-assisted ALI culture, 5 days in differentiation (duration study 3-7 days)): 5.7 ×
- induction of 5HT secretion (forskolin/DMSO) ([4]; stem cell passage numbers 7, 9, 11, 13 and 15): 4.1-5.7 ×
- 5HT induction [1]: 4.9 ×

Compound: O=CC=Cc1ccccc1 [Cinnamaldehyde]
- 5HT induction [1]: 1.8 ×
